Patent US9145414B2, “1,2,4-triazine-6-carboxamide derivative” (TAIHO PHARMACEUTICAL CO., LTD., priority 2011, dated 2015)
Read-outs that look alike come from different tables or passages of the source.

Legend:
[1] = target: recombinant human KDR protein (Homo sapiens (Human), UniProt P35968); experiment: KDR kinase activity inhibitory effect; format: biochemical; details: for KDR inhibitory activity: Selectivity for Syk: KDR IC50 relative to Syk IC50; for IC50: Table 97
Method: The purified recombinant human KDR protein used in the test is a house purified product. […] The mixture was incubated at 30° C. for 180 minutes to perform kinase reaction. […] Their respective amounts were measured, and the rate of phosphorylation reaction was then determined from the ratio between the amounts.

[2] = test system: recombinant human Aurora B protein; experiment: Aurora B kinase activity inhibitory effect; format: biochemical; details: Aurora B IC50 relative to Syk IC50
Method: (§1) The reaction solution was left standing in the dark at room temperature for 120 minutes. Then, fluorescence polarization values obtained by measurement using PHERAstar (BMG LABTECH JAPAN Ltd., excitation wavelength: 485 nm, detection wavelength: 520 nm) were used to determine the rate of phosphorylation reaction.

[3] = target: recombinant human Aurora B protein (Homo sapiens (Human), UniProt Q96GD4); experiment: Aurora B kinase activity inhibitory effect; format: biochemical; details: Table 97; read-out: AuroraB inhibitory activity IC50
Sequence of recombinant human Aurora B protein (Homo sapiens (Human), UniProt Q96GD4) (Q96GD4 whole entry): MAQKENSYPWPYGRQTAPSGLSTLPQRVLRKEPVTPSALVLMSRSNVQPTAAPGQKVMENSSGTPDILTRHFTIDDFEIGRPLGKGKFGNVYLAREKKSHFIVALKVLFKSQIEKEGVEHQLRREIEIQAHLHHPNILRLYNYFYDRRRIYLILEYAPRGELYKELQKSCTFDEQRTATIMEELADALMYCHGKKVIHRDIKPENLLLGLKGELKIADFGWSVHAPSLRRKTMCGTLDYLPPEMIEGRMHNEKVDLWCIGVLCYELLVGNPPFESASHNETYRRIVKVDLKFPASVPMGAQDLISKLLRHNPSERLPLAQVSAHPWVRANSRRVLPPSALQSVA
Method: as §1

[4] = test system: SU-DHL-6 cells (diffuse large-cell lymphoma cell line); experiment: Cell growth inhibition test; format: cell-based; details: Homo sapiens, 72 h; SU-DHL-6 cells, 3 days culture, Table 96; read-out: Cell growth inhibition IC50
Method: The compound of the present invention was serially diluted with dimethyl sulfoxide and then added to an RPMI1640 medium containing 10% FBS. Each resulting solution was added at a concentration of 100 μl/well to the preceding SU-DHL-6 cell culture plate (final concentration of the compound: 10, 3, 1, 0.3, 0.1, 0.03, 0.01, and 0.003 μM). The cells were cultured at 37° C. for 3 days in an incubator containing 5% CO2. The cells thus cultured were left at room temperature for 30 minutes and then centrifuged at 1500 rpm for 3 minutes using a centrifuge (Hitachi Koki Co., Ltd., Himac CF7D2). A 100 μl aliquot of the supernatant was removed from each well to allow 100 μl of the cell culture solution to remain therein. This 100 μl of the remaining cell culture solution was supplemented with an equal amount of CellTiter-Glo Luminescent Cell Viability Assay (Promega KK, Cat#: G7573), and the mixture was then shaken for 1 minute using a plate mixer. The reaction solution was left in the dark for 10 minutes. Then, luminescence intensity derived from live cells of each well was measured using a microplate reader (PerkinElmer Inc., ARVOsx). […] Likewise, the IC50 values (μM) of the control compounds were also calculated and then compared with that of the compound of the present invention. Rate of cell growth inhibition(%)=(C−T)/C×100 T: luminescence intensity (count per second) of a well supplemented with the test compound C: luminescence intensity (count per second) of a well non-supplemented with the test compound

human Syk protein = human Syk protein (Homo sapiens (Human), UniProt P43405); experiment: Syk kinase inhibition test; format: biochemical; details: read-out: SYK inhibitory activity IC50
Method: Finally, phosphorylated peptides and non-phosphorylated peptides were separated therebetween using LabChip™ 3000 system (Caliper Life Sciences, Inc., excitation wavelength: 488 nm, detection wavelength: 530 nm). Their respective amounts were measured, and the rate of phosphorylation reaction was then determined from the ratio between the amounts. The concentration at which the compound can inhibit 50% phosphorylation reaction is defined as an IC50 value (μM).
Also, known 1,2,4-triazine-6-carboxamide derivatives A, B, and C (WO2000/075113 (A: compound No. 121 and B: compound No. 154) and WO2000/076980 (C: compound No. 39)) were synthesized as control compounds. Their IC50 values (μM) were calculated in the same way as above and then compared with that of the compound of the present invention.

Sequence of recombinant human KDR protein (P35968 20-1356): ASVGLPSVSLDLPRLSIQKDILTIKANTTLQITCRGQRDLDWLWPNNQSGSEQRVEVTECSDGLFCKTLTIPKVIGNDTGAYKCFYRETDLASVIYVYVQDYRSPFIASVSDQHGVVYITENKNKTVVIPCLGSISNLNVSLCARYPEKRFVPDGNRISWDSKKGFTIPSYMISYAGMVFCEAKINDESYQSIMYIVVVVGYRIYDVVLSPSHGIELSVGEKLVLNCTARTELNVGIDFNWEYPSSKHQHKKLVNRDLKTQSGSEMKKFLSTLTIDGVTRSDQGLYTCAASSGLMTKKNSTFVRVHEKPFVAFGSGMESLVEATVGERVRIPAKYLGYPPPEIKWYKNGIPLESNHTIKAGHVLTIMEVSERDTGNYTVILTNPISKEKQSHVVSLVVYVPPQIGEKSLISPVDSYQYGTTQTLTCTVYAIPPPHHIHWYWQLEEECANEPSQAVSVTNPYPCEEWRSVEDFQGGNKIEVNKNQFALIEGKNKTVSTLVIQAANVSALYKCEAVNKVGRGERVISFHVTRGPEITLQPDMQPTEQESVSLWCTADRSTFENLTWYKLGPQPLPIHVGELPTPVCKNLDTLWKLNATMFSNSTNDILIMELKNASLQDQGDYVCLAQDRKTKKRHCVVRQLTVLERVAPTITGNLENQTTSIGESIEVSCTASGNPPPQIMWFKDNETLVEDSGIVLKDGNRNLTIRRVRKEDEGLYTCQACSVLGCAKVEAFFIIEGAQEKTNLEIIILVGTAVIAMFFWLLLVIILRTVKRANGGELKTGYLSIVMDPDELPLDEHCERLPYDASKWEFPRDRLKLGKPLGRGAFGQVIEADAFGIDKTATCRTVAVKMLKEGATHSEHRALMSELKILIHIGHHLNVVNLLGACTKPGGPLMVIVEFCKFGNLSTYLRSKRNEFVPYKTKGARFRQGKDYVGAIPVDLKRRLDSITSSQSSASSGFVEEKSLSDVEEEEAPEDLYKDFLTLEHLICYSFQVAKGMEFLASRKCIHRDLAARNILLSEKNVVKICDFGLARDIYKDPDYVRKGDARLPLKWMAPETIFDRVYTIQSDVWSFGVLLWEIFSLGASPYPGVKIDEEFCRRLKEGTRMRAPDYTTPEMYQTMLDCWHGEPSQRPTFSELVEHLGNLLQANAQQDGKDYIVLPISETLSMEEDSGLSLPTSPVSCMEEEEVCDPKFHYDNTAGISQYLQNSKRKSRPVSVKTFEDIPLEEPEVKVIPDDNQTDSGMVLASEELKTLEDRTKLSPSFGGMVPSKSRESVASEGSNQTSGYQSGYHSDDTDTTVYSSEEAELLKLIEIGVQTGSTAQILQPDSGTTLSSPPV

Row | Structure (SMILES) | KDR inhibitory activity: Selectivity for Syk [1] | IC50 [1] [nM] | AuroraB inhibitory activity: Selectivity for Syk [2] | IC50 [3] [nM] | IC50 [4] [nM] | IC50 (human Syk protein; Table 95) [nM] | IC50 (human Syk protein; Table 97) [nM]
1 | NC(=O)c1nnc(N[C@@H]2CCCC[C@@H]2N)nc1Nc1cc2ccccc2s1 [Example 161] | (>7000 times) | > 2000 | (1500 times) | 420 | 27 | 0.28 | 0.28
2 | NC(=O)c1nnc(N[C@@H]2CCCC[C@@H]2N)nc1Nc1ccc2cn(C(F)F)nc2c1 [Example 24, 3-((1R,2S)-2-aminocyclohexylamino)-5-(2-(difluoromethyl)-2H-indazol-6-ylamino)-1,2,4-triazine-6-carboxamide] | (>20000 times) | > 10000 | (>20000 times) | > 10000 | 152 | 0.53 | 0.53
3 | NC(=O)c1nnc(N[C@@H]2CCOC[C@@H]2N)nc1Nc1cccc2c1ccn2C1CC1 [Example 160] | (4400 times) | 1400 | (4100 times) | 1300 | 165 | 0.38 | 0.38
